Like-named read-outs stand apart in the source and are kept apart here.
Columns and labels:
Test in all cases: microbe, parasite or virus in culture
Format in all cases: cell-based, Hepatitis C virus (HCV)
[1] = system: HCV replicon 1AY93H; details: read-out: 1A Y93H IC50, Replicon Assay A
Procedure, shortened: (§1)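 HCV RNA levels were calculated from Ct values (minus intercept, divided by slope) of a Neo primer/probe standard curve, with cyclophilin quantified the same way. Cells were seeded at 2000/well and incubated with compound for 3 days in 5% serum and 0.5% DMSO.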

[2] = system: HCV replicon 1A; details: Replicon Assay A
Procedure, shortened: as §1

[3] = system: HCV replicon 2B; details: read-out: 2B IC50, Replicon Assay A
Procedure, shortened: as §1

[4] = system: HCV replicon 1AQ30D; details: Replicon Assay B
[5] = system: HCV replicon 1B; details: Replicon Assay B
[6] = Hepatitis C virus, HCV replicon 1A
[7] = Hepatitis C virus, HCV replicon 1B
[8] = Hepatitis C virus, read-out: 1A Q30D IC50 (nM), replicon 1AQ30D
[9] = read-out: 1A Q30D IC50, replicon 1AQ30D

| SMILES | IC50 ([1]; HCV replicon 1A Y93H) | IC50 [2, 6] | IC50 ([3]; HCV replicon 2B) | IC50 ([4]; read-out: 1A Q30D IC50, HCV replicon 1A Q30D) | IC50 [5, 7] | IC50 ([1]; replicon 1AY93H) | IC50 ([2]; replicon 1A) | IC50 ([3]; replicon 2B) | IC50 [4, 8] | IC50 ([5]; Hepatitis C virus, replicon 1B) | IC50 ([2]; Hepatitis C virus, replicon 1A) | IC50 [4, 9] | IC50 ([4]; Hepatitis C virus, read-out: 1A Q30D IC50, HCV replicon 1A Q30D) | IC50 ([5]; replicon 1B) |
| --- | --- | --- | --- | --- | --- | --- | --- | --- | --- | --- | --- | --- | --- | --- |
| COC(=O)N[C@H](C(=O)N1CCC[C@H]1c1ncc(-c2cc(C)c3c(c2)OC(c2ccc(C4CC4)s2)n2c-3cc3cc(-c4cnc([C@@H]5C[C@H]6C[C@H]6N5C(=O)[C@@H](NC(=O)OC)C5CCOCC5)[nH]4)ccc32)[nH]1)C(C)C (single isomer, unassigned) [Compound 762] | 5 pM | 2 pM | 4.8 pM | 0.025 nM | 3 pM | – | – | – | – | – | – | – | – | – |
| COC(=O)NC(C(=O)N1CCC[C@H]1c1ncc(-c2cc(F)c3c(c2)OC(c2ccc(C4CC4)s2)n2c-3cc3cc(-c4cnc([C@@H]5CCCN5C(=O)C(NC(=O)OC)C(C)(C)F)[nH]4)ccc32)[nH]1)C(C)(C)F (single isomer, unassigned) [Compound 111] | – | – | – | – | – | 74 pM | 3.2 pM | 38 pM | 0.13 nM | 1.7 pM | – | – | – | – |
| COC(=O)N[C@H](C(=O)N1CCC[C@H]1c1ncc(-c2cc(F)c3c(c2)OC(c2ccc(C4CC4)s2)n2c-3c(F)c3cc(-c4cnc([C@@H]5CCCC5C(=O)[C@@H](NC(=O)OC)C5CCOCC5)[nH]4)ccc32)[nH]1)C(C)C (single isomer, unassigned) [Compound 362] | – | – | – | – | – | 77.5 pM | – | 48.6 pM | – | 1.8 pM | 1.1 pM | 0.981 nM | – | – |
| COC(=O)NC(C(=O)N1CCC[C@H]1c1ncc(-c2ccc3c(c2)cc2n3C(c3cc4ccccc4s3)Oc3cc(-c4cnc([C@@H]5CCCN5C(=O)[C@@H](NC(=O)OC)C(C)C)[nH]4)cc(F)c3-2)[nH]1)C1C[C@@H](C)O[C@@H](C)C1 (single isomer, unassigned) [Compound 640] | 10.6 pM | 1.9 pM | 25.3 pM | – | 1.1 pM | – | – | – | – | – | – | – | 0.271 nM | – |
| COC(=O)NC(C(=O)N1CCC[C@H]1c1ncc(-c2cc(F)c3c(c2)OC(c2ccc(C4CC4)s2)n2c-3cc3cc(-c4cnc([C@@H]5CCCN5C(=O)[C@@H](NC(=O)OC)C(C)C)[nH]4)ccc32)[nH]1)C1CCOC(C)(C)C1 (single isomer, unassigned) [Compound 214] | – | – | – | – | – | 9 pM | 3 pM | 5 pM | – | 2.2 pM | – | 0.032 nM | – | – |
| COC(=O)NC(C(=O)N1CCC[C@H]1c1ncc(-c2cc(F)c3c(c2)OC(c2ccc(C4CC4)s2)n2c-3cc3cc(-c4cnc([C@@H]5CCCN5C(=O)[C@@H](NC(=O)OC)C(C)C)[nH]4)ccc32)[nH]1)C1C[C@@H](C)O[C@@H](C)C1 (single isomer, unassigned) [Compound 189] | – | – | – | – | – | 260 pM | 1.3 pM | 480 pM | – | – | – | 1.42 nM | – | 1.8 pM |
| COC(=O)N[C@H](C(=O)N1CCC[C@H]1c1ncc(-c2ccc3c(c2)OC(c2ccc(C4CC4)s2)n2c-3cc3cc(-c4cnc([C@@H]5CCCN5C(=O)[C@@H](NC(=O)OC)C5CCOCC5)[nH]4)ccc32)[nH]1)C(C)C (single isomer, unassigned) [Compound 335] | – | – | – | – | – | 5.2 pM | 2.5 pM | 4 pM | 0.0639 nM | 1.2 pM | – | – | – | – |
| COC(=O)N[C@H](C(=O)N1CCC[C@H]1c1ncc(-c2ccc3c(c2)OC(c2cc4ccccc4s2)n2c-3cc3cc(-c4cnc([C@@H]5CCCN5C(=O)[C@@H](NC(=O)OC)C5CCOCC5)[nH]4)ccc32)[nH]1)C1CCOCC1 (single isomer, unassigned) [Compound 262] | – | – | – | – | – | 52 pM | – | 19 pM | – | 4 pM | 4.2 pM | 0.12 nM | – | – |
| COC(=O)NC(C(=O)N1CCC[C@H]1c1ncc(-c2ccc3c(c2)cc2n3C(c3ccc(C4CC4)s3)Oc3cc(-c4cnc([C@@H]5CCCN5C(=O)[C@@H](NC(=O)OC)C(C)C)[nH]4)cc(F)c3-2)[nH]1)C1CN(C(=O)C2CC2)C1 (single isomer, unassigned) [Compound 267] | – | – | – | – | – | 13 pM | 3.5 pM | 12 pM | 0.08 nM | 3.9 pM | – | – | – | – |
